Substitutions are numbered along the chain they refer to. Structures can show the parent of a compound that is named as a salt.
How the values were obtained:
[1] = target: T1, MRGPRX2-WT (wild-type MRGPRX2 receptor) (Homo sapiens, UniProt Q96LB1); assay: Primary HTS, Ca2+ mobilization (fluorescence ratio, B-score) in HEK293-Gα15 cells stably expressing wild-type MRGPRX2; assay type: cell-based; settings: 10 μM compound
T1 construct: expressed in transfected cells
T1 sequence (Q96LB1 1-330): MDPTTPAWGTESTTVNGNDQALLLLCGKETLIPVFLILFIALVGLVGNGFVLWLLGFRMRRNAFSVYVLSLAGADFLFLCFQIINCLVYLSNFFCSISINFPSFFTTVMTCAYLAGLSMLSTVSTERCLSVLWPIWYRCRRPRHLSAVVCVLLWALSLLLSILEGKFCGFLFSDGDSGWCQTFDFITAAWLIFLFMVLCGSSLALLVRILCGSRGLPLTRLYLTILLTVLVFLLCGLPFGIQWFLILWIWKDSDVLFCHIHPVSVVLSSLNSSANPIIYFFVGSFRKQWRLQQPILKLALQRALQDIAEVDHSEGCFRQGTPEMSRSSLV
Experimental: (§1) We performed an experimental HTS on the Johns Hopkins Drug Library, which includes 1,811 (57%) FDA-approved drugs among 3,456 total compounds (28% of all known drugs worldwide) ([15]). We performed the HTS at the Johns Hopkins University ChemBioCORE Facility and employed HEK293-Gα15 cell lines that stably expressed MRGPRX2 protein.
(§2) We utilized 10 μM compounds (each compound was tested in triplicate) and calculated the compound effect using the signal-to-background fluorescence ratio (see Supplementary Methods).
(§3) In the HTS, we determined MRGPRX2 activation by a Ca^2+ mobilization assay that recorded a fluorescence change by utilizing a Functional Drug Screening System (FDSS 6000; Hamamatsu); we evaluated the compound effect using the calculated fluorescence ratio. We further applied the B-score normalization, which provided robust corrections for variation in fluorescence ratio ([22]).
(§4) We performed an experimental high-throughput screening (HTS) on the Johns Hopkins Drug Library (JHDL), which includes 1,811 (57%) FDA-approved drugs among 3,456 total compounds (28% of all known drugs worldwide). The remaining compounds in JHDL are catalogued in one or more of the resources below: British Approved Names (BAN); Dénominations Communes Françaises (DCF); International Nonproprietary Names (INN); Japanese Adopted Names (JAN); MI (Merck Index); National Formulary drug name (NF); and United States Accepted Names (USAN). The JHU drug library is stocked in 96 well plates at 10 mM in 100% DMSO and stored at -80 °C. We used a final concentration of 10 uM for each compound and DMSO concentration of 0.1% (tested in triplicate). […] We evaluated compound effect using the calculated fluorescence ratio. We further calculated B-scores, which are a relative potency score similar to Z scores in that they are the ratio of an adjusted raw value in the numerator to a measure of variability in the denominator.

[2] = target: T2, MRGPRX2-MUT (MRGPRX2 N62S mutation) (Homo sapiens, UniProt Q96LB1, N62S); assay: Primary HTS, Ca2+ mobilization (fluorescence ratio, B-score) in HEK293-Gα15 cells stably expressing the MRGPRX2 N62S mutation; assay type: cell-based; settings: for B-scores (MUT): 10 μM compound, MRGPRX2-MUT (N62S) cells; for Change of B-scores (%): 10 μM
T2 construct: expressed in transfected cells
T2 sequence (Q96LB1 1-330 N62S): T1 sequence (Q96LB1 1-330) with N62S
Experimental: as §1, §2, §3, §4

[3] = MRGPRX2-MUT in comparison to MRGPRX2-WT cells, Supplementary Table 1
[4] = MRGPRX2-MUT versus MRGPRX2-WT cells, Supplementary Table 2

Compound: CC(=O)c1ccc2c(c1)N(CCCN(C)C)c1ccccc1S2 [Acepromazine Maleate]
- B-scores (WT) ([1]; Supplementary Table 1): 44.01
- B-scores (WT) ([1]; Supplementary Table 2): 44.01
- B-scores (MUT) ([2]; Supplementary Table 1): 28.97
- B-scores (MUT) ([2]; Supplementary Table 2): 28.97
- Change of B-scores (%) [2, 3]: -34.19%
- Change of B-scores (%) [2, 4]: -34.19%

Compound: CC(=O)c1ccc2c(c1)N(CCCN(C)C)c1ccccc1S2 [Acepromazine]
- B-scores (WT) ([1]; Supplementary Table 2): 22.99
- B-scores (MUT) ([2]; Supplementary Table 2): 43.26
- Change of B-scores (%) [2, 4]: 88.18%

Compound: CC(=O)OCC[N+](C)(C)C [Acetylcholine Chloride]
- B-scores (WT) ([1]; Supplementary Table 1): 47.11
- B-scores (WT) ([1]; Supplementary Table 2): 47.11
- B-scores (MUT) ([2]; Supplementary Table 1): 65.23
- B-scores (MUT) ([2]; Supplementary Table 2): 65.23
- Change of B-scores (%) [2, 3]: 38.45%
- Change of B-scores (%) [2, 4]: 38.45%

Compound: CC(=O)OCC[N+](C)(C)C [Acetylcholine]
- B-scores (WT) ([1]; Supplementary Table 1): 23.36
- B-scores (WT) ([1]; Supplementary Table 2): 23.36
- B-scores (MUT) ([2]; Supplementary Table 1): 80.61
- B-scores (MUT) ([2]; Supplementary Table 2): 80.61
- Change of B-scores (%) [2, 3]: 245.01%
- Change of B-scores (%) [2, 4]: 245.01%

Compound: Nc1ncnc2c1ncn2[C@@H]1O[C@H](CO)[C@@H](O)[C@H]1O [Adenosine]
- B-scores (WT) ([1]; Supplementary Table 1): 35.61
- B-scores (MUT) ([2]; Supplementary Table 1): 0.32
- Change of B-scores (%) [2, 3]: -99.09%

Compound: CC(C)(C)NCC(O)c1ccc(O)c(CO)c1.CC(C)(C)NCC(O)c1ccc(O)c(CO)c1.O=S(=O)(O)O (stereo not shown) [Albuterol sulfate]
- B-scores (WT) ([1]; Supplementary Table 2): 12.09
- B-scores (MUT) ([2]; Supplementary Table 2): 2.96
- Change of B-scores (%) [2, 4]: -75.51%

Compound: CCCCC(CC)CNC(=N)NC(=N)NCCCCCCNC(=N)NC(=N)NCC(CC)CCCC (stereo not shown) [Alexidine Hydrochloride]
- B-scores (WT) ([1]; Supplementary Table 1): 30.77
- B-scores (WT) ([1]; Table 1): 30.77
- B-scores (MUT) ([2]; Supplementary Table 1): 1.68
- B-scores (MUT) ([2]; Table 1): 1.68
- Change of B-scores (%) [2, 3]: -94.54%
- Change of B-scores (%) ([2]; MRGPRX2-MUT in comparison to MRGPRX2-WT cells, Table 1): -94.54%

Compound: CN(C)CCc1c[nH]c2ccc(CS(=O)(=O)N3CCCC3)cc12 [Almotriptan]
- B-scores (WT) ([1]; Supplementary Table 1): 18.49
- B-scores (MUT) ([2]; Supplementary Table 1): 2.98
- Change of B-scores (%) [2, 3]: -83.88%

Compound: CCCCC[C@H](O)/C=C/[C@H]1[C@H](O)CC(=O)[C@@H]1CCCCCCC(=O)O [Alprostadil]
- B-scores (WT) ([1]; Supplementary Table 1): 42.04
- B-scores (MUT) ([2]; Supplementary Table 1): 11.08
- Change of B-scores (%) [2, 3]: -73.65%

Compound: CN(C)CCC=C1c2ccccc2CCc2ccccc21 [Amitriptyline hydrochloride]
- B-scores (WT) ([1]; Supplementary Table 2): 16.31
- B-scores (MUT) ([2]; Supplementary Table 2): 1.83
- Change of B-scores (%) [2, 4]: -88.77%

Compound: CCOC(=O)C1=C(COCCN)NC(C)=C(C(=O)OC)C1c1ccccc1Cl (stereo not shown) [Amlodipine Besylate]
- B-scores (WT) ([1]; Supplementary Table 1): 31.57
- B-scores (MUT) ([2]; Supplementary Table 1): 3.87
- Change of B-scores (%) [2, 3]: -87.76%

Compound: COC(=O)C1=CCCN(C)C1 [Arecoline Hydrobromide]
- B-scores (WT) ([1]; Supplementary Table 1): 28.78
- B-scores (MUT) ([2]; Supplementary Table 1): 58.08
- Change of B-scores (%) [2, 3]: 101.79%

Compound: CN1[C@@H]2CC[C@H]1C[C@@H](OC(=O)C(CO)c1ccccc1)C2 (stereo partly shown) [Atropine Sulfate Monohydrate]
- B-scores (WT) ([1]; Supplementary Table 1): 24.16
- B-scores (WT) ([1]; Supplementary Table 2): 24.16
- B-scores (MUT) ([2]; Supplementary Table 1): 0.90
- B-scores (MUT) ([2]; Supplementary Table 2): 0.9
- Change of B-scores (%) [2, 3]: -96.27%
- Change of B-scores (%) [2, 4]: -96.27%

Compound: CN1[C@@H]2CC[C@H]1C[C@@H](OC(=O)C(CO)c1ccccc1)C2 (stereo partly shown) [Atropine Sulfate]
- B-scores (WT) ([1]; Supplementary Table 1): 41.43
- B-scores (WT) ([1]; Supplementary Table 2): 41.43
- B-scores (MUT) ([2]; Supplementary Table 2): -0.13
- Change of B-scores (%) [2, 3]: -100.31%
- Change of B-scores (%) [2, 4]: -100.31%

Compound: CN1[C@@H]2CC[C@H]1C[C@@H](OC(=O)C(CO)c1ccccc1)C2 (stereo partly shown) [Atropine]
- B-scores (WT) ([1]; Supplementary Table 1): 18.59
- B-scores (WT) ([1]; Supplementary Table 2): 18.59
- B-scores (MUT) ([2]; Supplementary Table 2): -0.95
- Change of B-scores (%) [2, 3]: -105.08%
- Change of B-scores (%) [2, 4]: -105.08%
